Source: patent US5916872A, “Cyclic peptides having broad spectrum antimicrobial activity” (IntraBiotics Pharmaceuticals, Inc., priority 1996, dated 1999)
Converted amounts (≈) assume the structure as drawn. Positions of bridges follow the written chain, without caps; N, C: chain ends. Residues, ends and D or L forms follow the SMILES beside them.

What was measured:
Format in all cases: cell-based
Pseudomonas aeruginosa = assay: Modified NCCLS minimum inhibitory concentration (MIC) assay; settings: Table 4; Psa is Pseudomonas aeruginosa
Excerpt: (§1) Microorganisms: Escherichia coli ML-35p and vancomycin-resistant Enterococcus faecium (VRE) were obtained from Dr. Robert Lehrer (UCLA, see also, Lehrer et al., 1988, J. Immunol. Methods 108:153) and Dr. Gary Schoolnik (Stanford), respectively. Pseudomonas aeruginosa (ATCC 9027), Candida albicans (ATCC 1023), and methicillin resistant Staphylococcus aureus (ATCC 33591) were obtained from the American Type Culture Collection, Rockville, Md.
(§2) 8.3 Modified NCCLS Minimum Inhibitory Concentration (MIC) Assay
(§3) The National Committee for Clinical Standards (NCCLS) requires that test compounds be prepared as stock solutions in Meuller-Hinton Broth ("MHB") at 512 μg/mL. The stock solutions are serially diluted (two-fold) in medium and each serial dilution added 1:1 to medium containing 1×10^6 CFU/mL bacteria (National Committee on Clinical Laboratory Standards, December 1994, "Performance Standards for Antimicrobial Susceptibility Testing," NCCLS Document M100-S5 Vol. 14, No. 16; Methods for Dilution Antimicrobial Susceptibility Test for Bacteria that Grow Aerobically, 3d Ed., Approved Standard M7-A3, National Committee for Clinical Standards, Villanova, Pa.).
(§4) Thus, following the NCCLS protocol would result in serial two-fold dilutions containing less peptide than calculated, yielding erroneously high MIC values.
(§5) To overcome this problem, the following modified NCCLS assay is the preferred method for determining MICs of the cyclic peptides of the invention.
(§6) Preparation of MIC assay plates:
(§7) 1. Prepare a fresh overnight culture of test organism in Meuller-Hinton broth (MHB; Becton-Dickinson, Cockysville, Md., BB2 #11443).
(§8) 2. Dilute the culture to approximately 4×10^5 CFUs/mL with fresh MHB and dispense 100 μL aliquots into each well of a sterile 96-well microtiter plate.
(§9) 3. From the peptide stock solution, prepare serial two-fold dilutions (from 1280 μg/mL to 0.625 μg/mL) using acetic acid (0.01%) as a diluent, or, for peptide concentrations lower than 50 μg/mL, sodium acetate (10 mM, pH 5) containing Human Serum Albumin (HSA; 0.1% w/v) as a diluent.
(§10) 4. Dispense triplicate aliquots (11 μL) of each serial dilution into the wells of the microtiter plate.
(§11) 5. Incubate the plate for 16-18 hours, without aeration, at 37° C. (bacteria) or 30° C. (yeast).
(§12) 6. Examine the plates and evaluate each well for turbidity (cell growth). Often, MRSA will settle out and form a pellet at the bottom of the well. MRSA can be evaluated by placing the microtiter plate on a stand and examining the bottom of the well using a tilted mirror.
(§13) 7. The minimum inhibitory concentration (MIC) is defined as the lowest peptide concentration that inhibits all visible growth. If the MIC values for each of the triplicate samples differ, the MIC is obtained by averaging the results of the three samples. […]

[1] = system: MRSA (methicillin resistant Staphylococcus aureus); assay: as above; settings: Table 4
Excerpt: as §1, §2, §3, §4, §5, §6, §7, §8, §9, §10, §11, §12, §13

[2] = system: MRSA (methicillin resistant Staphylococcus aureus); assay: Kinetic bactericidal assay; settings: 2 μg/mL peptide, from an initial value of 3.3 × 10^5 CFUs
Excerpt: as §1
8.4 Kinetic Bactericidal Assay
The following assay is used to determine the rate at which a cyclic peptide kills a target microorganism, as well as to determine if a cyclic peptide is bactericidal or bacteriostatic.
1. Dispense 200 μL of log-phase cells in LTM (4×10^5 CFUs/mL) into each well of a 96-well microtiter plate solution.
2. At time T=0 minutes, add 22 μL of 1280 μg/mL peptide to well A1 and mix by triturating 3 times.
3. Wait 30 seconds and add 22 μL of a second concentration of peptide the to the next well (A2) and mix by triturating 3 times.
4. Repeat the process, staggering each peptide addition by 30 seconds, until all concentrations of peptide have been added. Typically, 4-fold serial dilutions of stock peptide (i.e., 1280, 320, 80, 20 and 5 μg/mL peptide diluted 1:10 into each well) produces good comparative kill curves. Add 22 μL of 0.01% acetic acid to one well as a control.
5. At time T=15 minutes, mix well A1 by triturating 3 times and transfer 20 μL to an empty sterile petri dish (100 mm×15 mm).
6. Quickly add 20 mL of tempered (50° C.) TSA and gently swirl plate to mix.
7. Repeat steps 5-6 until all peptide concentrations have been plated.
8. For the control well, dilute the sample 1:100 with LTM and plate 50 μL of the dilution to obtain an accurate determinations of CFUs.
9. After the agar has solidified, invert the plates and incubate at 37° C. (bacteria) 30° C. (yeast) for 18-24 hours.
10. Repeat steps 5-9 for all peptide concentrations and control samples at times T=30, 60, 120, and 240 minutes.
11. Count the number of CFUs per plate and estimate the reduction in CFUs for each peptide concentration. In order to assess an effect using this assay, the peptide must reduce the CFUs by at least one log (i.e., at least 800 CFUs per plate). Although such numbers are higher than recommended for accuracy (30-300 CFUs/plate), log-order changes in recoverable CFUs indicate significant bacteriocidal efficacy.
12. To obtain comparative kill curves, plot the log of fractional survival versus peptide concentration.

| Compound | MIC Values Psa (Pseudomonas aeruginosa) | MIC Values MRSA [1] | MRSA Kill Kinetics 15 min [2] | MRSA Kill Kinetics 120 min [2] |
| --- | --- | --- | --- | --- |
| WLCYCRRRFCVCVGR | 32 µg/mL | 32 µg/mL | < 0.46 log reduction | < 0.46 log reduction |
| CC(C)C[C@@H]1NC(=O)[C@H](Cc2c[nH]c3ccccc23)NC(=O)[C@H](C(C)C)NC(=O)[C@@H]2CSSC[C@H](NC1=O)C(=O)N[C@@H](Cc1ccc(O)cc1)C(=O)N[C@H]1CSSC[C@H](NC(=O)[C@H](Cc3ccccc3)NC(=O)[C@H](CCCNC(=N)N)NC(=O)[C@H](CCCNC(=N)N)NC(=O)[C@H](CCCNC(=N)N)NC1=O)C(=O)N[C@@H](C(C)C)C(=O)N2 [cyclo(CYCRRRFCVCVWL)] (cyclo(CRRRFCVCVWLCY); disulfide 1-6, 8-12) | > 32 µg/mL | 4 µg/mL (≈ 2.37 µM) | 2.65 log reduction | 2.18 log reduction |
| RLCYCRRRFCVCVV [RLCYCRRRFCVCVV.dagger.] | 4 µg/mL | 2 µg/mL | – | – |
| CC(C)[C@@H]1NC(=O)[C@@H]2CSSC[C@H](NC(=O)[C@H](Cc3ccc(O)cc3)NC(=O)[C@H](Cc3c[nH]c4ccccc34)NC1=O)C(=O)N[C@@H](Cc1ccc(O)cc1)C(=O)N[C@H]1CSSC[C@H](NC(=O)[C@H](Cc3ccccc3)NC(=O)[C@H](CCCNC(=N)N)NC(=O)[C@H](CCCNC(=N)N)NC(=O)[C@H](CCCNC(=N)N)NC1=O)C(=O)N[C@@H](C(C)C)C(=O)N2 [cyco(CYCRRRFCVCVWY), cyclo(CYCRRRFCVCVWY)] (cyclo(CRRRFCVCVWYCY); disulfide 1-6, 8-12) | 32 µg/mL (≈ 18.4 µM) | 8 µg/mL (≈ 4.61 µM) | – | – |
| RLCYCRRRFCVCV | 2 µg/mL | 10.7 µg/mL | – | – |
| WLCYCRRRFCVCV | 13 µg/mL | 32 µg/mL | – | – |
| WLCYCRRRFCVCVGR [WLCYCRRRFCVCVGR.dagger.] | – | – | 1.79 log reduction | 2.26 log reduction |
| CC(C)C[C@@H]1NC(=O)[C@H](CCCNC(=N)N)NC(=O)CNC(=O)CNC(=O)[C@H](CCCNC(=N)N)NC(=O)[C@H](CCCNC(=N)N)NC(=O)CNC(=O)[C@H](C(C)C)NC(=O)[C@@H]2CSSC[C@H](NC1=O)C(=O)N[C@@H](Cc1ccc(O)cc1)C(=O)N[C@H]1CSSC[C@H](NC(=O)[C@H](Cc3ccccc3)NC(=O)[C@H](CCCNC(=N)N)NC(=O)[C@H](CCCNC(=N)N)NC(=O)[C@H](CCCNC(=N)N)NC1=O)C(=O)N[C@@H](C(C)C)C(=O)N2 [cyclo(CYCRRRFCVCVGRRGGRL)] (cyclo(GGRLCYCRRRFCVCVGRR); disulfide 5-14, 7-12) | 8 µg/mL (≈ 3.74 µM) | 5.33 µg/mL (≈ 2.49 µM) | 1.2 log reduction | 1.17 log reduction |
| WLCYCRRRFCVCV [WLCYCRRRFCVCV.dagger.] | > 32 µg/mL | 3.33 µg/mL | 2.12 log reduction | 2.89 log reduction |
| WYCYCRRRFCVCV | 32 µg/mL | 43 µg/mL | – | – |
| RGGRLCYCRRRFCVCVGR | 0.5 µg/mL | 4 µg/mL | – | – |
| CC(C)C[C@@H]1NC(=O)[C@H](CCCNC(=N)N)NC(=O)[C@H](C(C)C)NC(=O)[C@@H]2CSSC[C@H](NC1=O)C(=O)N[C@@H](Cc1ccc(O)cc1)C(=O)N[C@H]1CSSC[C@H](NC(=O)[C@H](Cc3ccccc3)NC(=O)[C@H](CCCNC(=N)N)NC(=O)[C@H](CCCNC(=N)N)NC(=O)[C@H](CCCNC(=N)N)NC1=O)C(=O)N[C@@H](C(C)C)C(=O)N2 [cyclo(CYCRRRFCVCVRL)] (cyclo(CRRRFCVCVRLCY); disulfide 1-6, 8-12) | 2.67 µg/mL (≈ 1.61 µM) | 16 µg/mL (≈ 9.67 µM) | – | – |
